In patent EP0432983A2 (priority 1989, dated 1991):
Converted amounts (≈) assume the structure as drawn.

Assays:
[1] = system: HT-29 (human colon carcinoma); assay: General anti-tumour assay, HT-29; type: cell-based
Procedure: (§1) With compounds AH-3, AH-4 and AH-5, four general anti-tumour assays and two cytotoxicity assays were performed. Current screening protocols were employed using test substance diluted as above and at varying concentrations. Tests were performed against the tumour cells P-388 (mouse DBA/2 lymphoid neoplasm), A-549 (human lung carcinoma), HT-29 (human colon carcinoma) and MCF-7 (human breast carcinoma) and for the cytotoxicity assays against CV-1 (monkey kidney fibroblast) and BHK (Hamster kidney fibroblast).
(§2) Scoring is performed as follows: (-) no activity - the number of cells is equal to the control of growth, 0-40% cell inhibition (+) low activity - numbers of cells are reduced by approx 50-60% (++) good activity - numbers of cells are reduced by approx 70-90% (+++) very good activity - there is 100% cell inhibition [(+) is the approximate IC₅₀]

[2] = system: CV-1 (monkey kidney fibroblast); assay: Cytotoxicity assay, CV-1; type: cell-based
Procedure: as §1, §2

[3] = system: MCF-7 (human breast carcinoma); assay: General anti-tumour assay, MCF-7; type: cell-based
Procedure: as §1, §2

[4] = system: A-549 (human lung carcinoma); assay: General anti-tumour assay, A-549; type: cell-based
Procedure: as §1, §2

[5] = system: VSV (Vesicular Stomatitis Virus); assay: microbe, parasite or virus in culture; type: cell-based; conditions: BHK, read-out: IC50 µg/ml approx
[6] = system: BHK (Hamster kidney fibroblast); assay: Cytotoxicity assay, BHK; type: cell-based
Procedure: as §1, §2

[7] = system: P-388 (mouse DBA/2 lymphoid neoplasm); assay: General anti-tumour assay, P-388; type: cell-based
Procedure: as §1, §2

[8] = system: HSV-1 (herpes simplex virus, type 1); assay: General anti-viral assay, HSV-1 in CV-1 cells (plaque reduction); type: cell-based; conditions: Human alphaherpesvirus 1; CV-1/ HSV-1; read-out: IC50 µg/ml approx
[9] = system: BHK cells

CC(C)=CCCC(C)C1CCC(C)c2c1cc(C)c1c2OCO1 (stereo not drawn) [AH-4, Helioporin D]
activity (cell inhibition) ([1]; HT-29, TEST CONC (µg) 0.2): - ((-) no activity - the number of cells is equal to the control of growth, 0-40% cell inhibition) | activity (cell inhibition) ([1]; HT-29, TEST CONC (µg) 0.5): - ((-) no activity - the number of cells is equal to the control of growth, 0-40% cell inhibition) | activity (cell inhibition) ([1]; HT-29, TEST CONC (µg) 1): - ((-) no activity - the number of cells is equal to the control of growth, 0-40% cell inhibition) | activity (cell inhibition) ([1]; HT-29, TEST CONC (µg) 2): - ((-) no activity - the number of cells is equal to the control of growth, 0-40% cell inhibition) | activity (cell inhibition) ([1]; HT-29, TEST CONC (µg) 5): + ((+) low activity - numbers of cells are reduced by approx 50-60%) | activity (cell inhibition) ([1]; HT-29, TEST CONC (µg) 10): +++ ((+++) very good activity - there is 100% cell inhibition) | activity (cell inhibition) ([1]; HT-29, TEST CONC (µg) 20): +++ ((+++) very good activity - there is 100% cell inhibition) | IC50 ([1]; Homo sapiens, HT-29, read-out: IC50 µg/ml approx): ~5 µg/mL (≈ 15.9 µM) | activity (cell inhibition) ([2]; CV-1, TEST CONC (µg) 0.2): - ((-) no activity - the number of cells is equal to the control of growth, 0-40% cell inhibition) | activity (cell inhibition) ([2]; CV-1, TEST CONC (µg) 0.5): - ((-) no activity - the number of cells is equal to the control of growth, 0-40% cell inhibition) | activity (cell inhibition) ([2]; CV-1, TEST CONC (µg) 1): - ((-) no activity - the number of cells is equal to the control of growth, 0-40% cell inhibition) | activity (cell inhibition) ([2]; CV-1, TEST CONC (µg) 2): - ((-) no activity - the number of cells is equal to the control of growth, 0-40% cell inhibition) | activity (cell inhibition) ([2]; CV-1, TEST CONC (µg) 5): - ((-) no activity - the number of cells is equal to the control of growth, 0-40% cell inhibition) | activity (cell inhibition) ([2]; CV-1, TEST CONC (µg) 10): + ((+) low activity - numbers of cells are reduced by approx 50-60%) | activity (cell inhibition) ([2]; CV-1, TEST CONC (µg) 20): ++ ((++) good activity - numbers of cells are reduced by approx 70-90%) | IC50 ([2]; Primates, CV-1, read-out: IC50 µg/ml approx): ~10 µg/mL (≈ 31.8 µM) | IC50 ([3]; Homo sapiens, MCF7, MCF-7, read-out: IC50 µg/ml approx): ~10 µg/mL (≈ 31.8 µM) | activity (cell inhibition) ([3]; MCF-7, TEST CONC (µg) 0.2): - ((-) no activity - the number of cells is equal to the control of growth, 0-40% cell inhibition) | activity (cell inhibition) ([3]; MCF-7, TEST CONC (µg) 0.5): - ((-) no activity - the number of cells is equal to the control of growth, 0-40% cell inhibition) | activity (cell inhibition) ([3]; MCF-7, TEST CONC (µg) 1): - ((-) no activity - the number of cells is equal to the control of growth, 0-40% cell inhibition) | activity (cell inhibition) ([3]; MCF-7, TEST CONC (µg) 2): - ((-) no activity - the number of cells is equal to the control of growth, 0-40% cell inhibition) | activity (cell inhibition) ([3]; MCF-7, TEST CONC (µg) 5): - ((-) no activity - the number of cells is equal to the control of growth, 0-40% cell inhibition) | activity (cell inhibition) ([3]; MCF-7, TEST CONC (µg) 10): + ((+) low activity - numbers of cells are reduced by approx 50-60%) | activity (cell inhibition) ([3]; MCF-7, TEST CONC (µg) 20): ++ ((++) good activity - numbers of cells are reduced by approx 70-90%) | activity (cell inhibition) ([4]; A-549, TEST CONC (µg) 0.2): - ((-) no activity - the number of cells is equal to the control of growth, 0-40% cell inhibition) | activity (cell inhibition) ([4]; A-549, TEST CONC (µg) 0.5): - ((-) no activity - the number of cells is equal to the control of growth, 0-40% cell inhibition) | activity (cell inhibition) ([4]; A-549, TEST CONC (µg) 1): - ((-) no activity - the number of cells is equal to the control of growth, 0-40% cell inhibition) | activity (cell inhibition) ([4]; A-549, TEST CONC (µg) 2): - ((-) no activity - the number of cells is equal to the control of growth, 0-40% cell inhibition) | activity (cell inhibition) ([4]; A-549, TEST CONC (µg) 5): - ((-) no activity - the number of cells is equal to the control of growth, 0-40% cell inhibition) | activity (cell inhibition) ([4]; A-549, TEST CONC (µg) 10): ++ ((++) good activity - numbers of cells are reduced by approx 70-90%) | activity (cell inhibition) ([4]; A-549, TEST CONC (µg) 20): ++ ((++) good activity - numbers of cells are reduced by approx 70-90%) | IC50 ([4]; Homo sapiens, A549, A-549, read-out: IC50 µg/ml approx): 5 to 10 µg/mL (≈ 15.9 to 31.8 µM) | IC50 [5]: > 40 µg/mL | IC50 ([6]; Mesocricetus auratus, read-out: IC50 µg/ml approx): 2 to 5 µg/mL (≈ 6.36 to 15.9 µM) | activity (cell inhibition) ([6]; TEST CONC (µg) 0.2): - ((-) no activity - the number of cells is equal to the control of growth, 0-40% cell inhibition) | activity (cell inhibition) ([6]; TEST CONC (µg) 0.5): - ((-) no activity - the number of cells is equal to the control of growth, 0-40% cell inhibition) | activity (cell inhibition) ([6]; TEST CONC (µg) 1): - ((-) no activity - the number of cells is equal to the control of growth, 0-40% cell inhibition) | activity (cell inhibition) ([6]; TEST CONC (µg) 2): - ((-) no activity - the number of cells is equal to the control of growth, 0-40% cell inhibition) | activity (cell inhibition) ([6]; TEST CONC (µg) 5): ++ ((++) good activity - numbers of cells are reduced by approx 70-90%) | activity (cell inhibition) ([6]; TEST CONC (µg) 10): +++ ((+++) very good activity - there is 100% cell inhibition) | activity (cell inhibition) ([6]; TEST CONC (µg) 20): +++ ((+++) very good activity - there is 100% cell inhibition) | IC50 ([7]; Mus musculus, P388, P-388, read-out: IC50 µg/ml approx): ~2 µg/mL (≈ 6.36 µM) | activity (cell inhibition) ([7]; P-388, TEST CONC (µg) 0.2): - ((-) no activity - the number of cells is equal to the control of growth, 0-40% cell inhibition) | activity (cell inhibition) ([7]; P-388, TEST CONC (µg) 0.5): - ((-) no activity - the number of cells is equal to the control of growth, 0-40% cell inhibition) | activity (cell inhibition) ([7]; P-388, TEST CONC (µg) 1): - ((-) no activity - the number of cells is equal to the control of growth, 0-40% cell inhibition) | activity (cell inhibition) ([7]; P-388, TEST CONC (µg) 2): + ((+) low activity - numbers of cells are reduced by approx 50-60%) | activity (cell inhibition) ([7]; P-388, TEST CONC (µg) 5): ++ ((++) good activity - numbers of cells are reduced by approx 70-90%) | activity (cell inhibition) ([7]; P-388, TEST CONC (µg) 10): ++ ((++) good activity - numbers of cells are reduced by approx 70-90%) | activity (cell inhibition) ([7]; P-388, TEST CONC (µg) 20): ++ ((++) good activity - numbers of cells are reduced by approx 70-90%) | IC50 [8]: > 40 µg/mL | cytotoxicity (inhibition zone on the cell sheet) [9]: 0-
